According to article PMC9655001, “Isolation and Identification of Antioxidative Peptide from Goose Liver Hydrolysate to Ameliorate Alcohol-Mediated Oxidative Stress Damage in HHL-5 Hepatocytes” (Molecules, 2022):
Read-outs that look alike come from different tables or passages of the source. Marks after values point to notes of the source that are not given here. Ends that are not written are not given here. Peptide text beside a SMILES is read from it.

Assays:
HHL-5 hepatocytes [1] = assay: GSH-Px activity in alcohol-mediated HHL-5 hepatocytes; assay type: cell-based, human; details: alcohol alone (EtOH model group)
Method: (§1) Cells were collected with PBS, the activity of ALT (C009-2-1), AST (C0010-2-1), and MDA (A003-1) in cell supernatant and the SOD (A001-3), GSH-Px (A005), CAT (A007-1-1), and ROS (E004-1-1) in the cells were measured using corresponding assay kits (Nanjing Jiancheng Biotechnology Institute, Nanjing, China) according to the manufacturer’s instructions.
GSH-Px: 0.2 mL of sample was mixed with 0.2 mL of […] and performed at 37 °C for 5 min. Then, 0.1 mL of reagent one was added and performed at 37 °C for 5 min. Subsequently, the miscible liquids were centrifuged at 4 °C, 3500× g for 10 min. One mL of supernatant was mixed with 1 mL of reagent three, 0.25 mL of reagent four, and 0.05 mL of reagent five and performed at room temperature for 15 min. The absorbance value was measured at a 412 nm wavelength by a multifunctional microplate reader.

HHL-5 hepatocytes [2] = assay: SOD activity in alcohol-mediated HHL-5 hepatocytes; assay type: cell-based, human; details: alcohol alone (EtOH model group)
Method: as §1
SOD: 20 μL of sample was mixed with 20 μL enzyme working liquid and 200 μL of substrate application solution. Then, miscible liquids were performed at 37 °C for 20 min. The absorbance values of the miscible liquids were measured at a 450 nm wavelength by a multifunctional microplate reader.

HHL-5 hepatocytes [3] = assay: ROS level in alcohol-mediated HHL-5 hepatocytes (DCFH-DA); assay type: cell-based, human; details: alcohol alone (EtOH model group)
Method: as §1
ROS: A DCFH-DA probe was added directly to the serum-free medium: DCFH-DA was generally diluted with a serum-free medium at a final concentration of 10 µM at 1:1000. After removing the culture medium, an appropriate volume of diluted DCFH-DA was added. The volume added should be sufficient to cover the cells. Usually, no less than 1 mL of diluted DCFH-DA is added to one well of a 6-well plate. A sample of cells without a probe and with a medium only was set as negative for the control. Positive control: take a sample of cells with a probe and add reactive oxygen species to induce the cells. The cells were incubated at 37 °C for 20 min […] (mixed upside down every 5 min to make full contact between the probe and cell). […] In general, an obvious green fluorescence can be observed in the positive control cells after 30 min of stimulation. […] It can also be detected according to FITC fluorescence detection conditions. The results were expressed as fluorescence values.

HHL-5 hepatocytes [4] = assay: Cell viability by Cell Counting Kit-8
Method: Furthermore, HHL-5 hepatocytes were cultured with different concentrations of GLHP (100 μg/mL, 200 μg/mL, 300 μg/mL, 400 μg/mL, and 500 μg/mL) to evaluate the cytotoxicity of GLHP, as described above. The ability of GLHP to protect HHL-5 hepatocytes was evaluated. […] In the CTRL group, a culture medium supplemented with an equal volume of the PBS was added and incubated for 12 h, and the culture medium was then substituted with an equal volume of the PBS and incubated for 48 h. Finally, the culture media and cells were collected for further analysis.
The Cell Counting Kit-8 (CCK-8, Beijing Solarbio Science and Technology Co., Ltd., Beijing, China) was used to assess the HH-5 cell viability; the testing procedures were performed according to the manufacturer’s protocol. Adherent cells in 96-well culture plates were treated and then incubated with a CCK solution for 2 h; the absorbance was detected at a wavelength of 450 nm with the multifunctional microplate reader.

HHL-5 hepatocytes [5] = assay: CAT activity in alcohol-mediated HHL-5 hepatocytes; assay type: cell-based, human; details: alcohol alone (EtOH model group)
Method: as §1
CAT: 0.05 mL of sample was mixed with 1.0 mL reagent one, 0.1 mL reagent two and performed at 37 °C for 1 min. Then, 1.0 mL reagent three and 0.1 mL reagent four were mixed with the miscible liquids. The absorbance value was measured at 405 nm wavelength by a multifunctional microplate reader.

HHL-5 hepatocytes [6] = assay: AST level in model of alcohol-mediated HHL-5 hepatocytes damage; assay type: cell-based, human; details: alcohol 500 mmol/L, 48 h, no peptide pre-treatment (model group)
Method: as §1
ALT and AST: 5 μL of sample was mixed with 20μL of ALT/AST matrix solution and the reaction was performed at 37 °C for 30 min. Then, 20 μL of 2, 4-dinitrophenylhydrazine solution was added and the reaction was performed at 37 °C for 20 min. Finally, 200 μL of sodium hydroxide solution (0.4 mol/L) was added and the reaction was performed at room temperature for 15 min. The absorbance value was measured at a 510 nm wavelength by a multifunctional microplate reader.

HHL-5 hepatocytes [7] = assay: H2O2 level in alcohol-mediated HHL-5 hepatocytes; assay type: cell-based, human; details: alcohol alone (EtOH model group)
Method: The cell suspension was inoculated into 96-well plates (4 × 10^3 per well) and added to the culture medium containing: DMEM-F12 (1:1, HyClone, Logan, UT, USA), 10% FBS (Gibco, New York, NY, USA), 1% P/S (100 U/L), 15 mmol/L of HEPES, and 2.5 mmol/L of L-glutamine, then the plates with cells were placed in a 5% CO2 humidified atmosphere at 37 °C for 24 h. […] Furthermore, HHL-5 hepatocytes were cultured with different concentrations of GLHP (100 μg/mL, 200 μg/mL, 300 μg/mL, 400 μg/mL, and 500 μg/mL) to evaluate the cytotoxicity of GLHP, as described above. The ability of GLHP to protect HHL-5 hepatocytes was evaluated. […] In the CTRL group, a culture medium supplemented with an equal volume of the PBS was added and incubated for 12 h, and the culture medium was then substituted with an equal volume of the PBS and incubated for 48 h. Finally, the culture media and cells were collected for further analysis.

HHL-5 hepatocytes [8] = assay: MDA level in model of alcohol-mediated HHL-5 hepatocytes damage; assay type: cell-based, human; details: alcohol 500 mmol/L, 48 h, no peptide pre-treatment (model group)
Method: as §1
MDA: 0.1 mL of sample was mixed with 0.1 mL of reagent one, 3 mL of reagent two, and 1 mL of reagent three in the 10 mL centrifuge tube. Then, the centrifuge tube was centrifuged at 4 °C, 3500× g for 10 min after being heated in a boiling water bath for 40 min. The absorbance value of 200 μL of the supernatant was measured at a 532 nm wavelength by a multifunctional microplate reader.

[9] = cited from earlier work
Source text: Typically, oligopeptides containing 2 to 10 amino acid residues are considered to have a higher antioxidant activity compared with their parent protein [14]. Free radicals, linked to oxidative stress, are highly reactive with other molecules, including vital DNA and proteins, the destruction of which can damage or kill cells. Among the many free radicals, the ∙OH radical is commonly considered as one of the most harmful highly react ...

Fe^2+ chelating ability = details: 1 mg/mL, ferrozine, 10 min room temperature, absorbance 562 nm, mean ± SD
Method: (§2) The antioxidant activity of the target peptides was evaluated by detecting the hydroxyl radical scavenging activity (∙OH), DPPH radical scavenging activity, and Fe^2+ chelating ability; the method was performed according to Zhu et al. with some modifications.
Measurement of the Fe^2+ chelating ability. Briefly, 1 mL of LPLPFP was mixed with 0.05 mL of FeCl2 (2 mmol/L) and 0.2 mL of ferrozine (5 mmol/L). The mixture was vortexed and kept at room temperature for 10 min prior to the measurement of the absorbance at 562 nm (As). The control (Ac) contained everything except using deionized water instead of LPLPFP. The chelating ability was calculated according to the equation Fe^2+chelating ability (%) = (Ac − As) ÷ Ac × 100% where As and Ac represent the absorbance of the sample and the control groups. BHT was used as a positive control.

[10] = ∙OH radical scavenging activity; details: 1 mg/mL, 37 °C 60 min, absorbance 536 nm, mean ± SD
Method: as §2
Measurement of the ∙OH radical scavenging activity. The sample group was a mixture of 0.6 mL of 1, 10-phenanthroline monohydrate (5 mmol/L) and 0.4 mL of phosphate buffer (0.2 M, pH 7.4), and then 0.6 mL of LPLPFP (1 mg/mL), 0.6 mL of EDTA (15 mmol/L), and 0.6 mL of FeSO4 (5 mmol/L) were mixed thoroughly. After mixing, 0.8 mL of H2O2 (0.1%) was added and incubated at 37 °C for 60 min. Afterward, the mixture absorbance was measured at 536 nm with the multifunctional microplate reader. The control group contained the same solutions as the sample group, except deionized water was used instead of the sample. The blank group contained the same solution as the control group, except deionized water was used instead of H2O2. The results were determined according to the equation. hydroxyl radical scavenging activity (%) = (As − Ac) ÷ (Ab − Ac) × 100% where As, Ac, and Ab represent the absorbance of the sample and the control and blank groups, respectively. BHT was used as a positive control.

[11] = DPPH radical scavenging activity; details: 1 mg/mL, 0.2 mmol/L DPPH, 30 min room temperature, absorbance 517 nm, mean ± SD
Method: as §2
Measurement of the DPPH radical scavenging activity. One mL of the LPLPFP (dissolved in deionized water) was mixed with 1 mL of 0.2 mmol/L DPPH (in 95% ethanol) as the sample group; 1 mL of deionized water was mixed with 1 mL of ethanol (95%) as the blank group; and 1 mL of 0.2 mmol/L DPPH was mixed with 1 mL of ethanol (95%) as the control group. The mixture was agitated using a vortex and incubated for 30 min at room temperature, protected from light, and then the absorbance at 517 nm was measured. The scavenging activity of LPLPFP and BHT was calculated using the following equation:DPPH radical scavenging activity (%) = 1 − [ (As − Ac) ÷ (Ab − Ac)] × 100% where As, Ac, and Ab represent the absorbance of the sample, the control, and the blank groups, respectively. BHT was used as a positive control.

pepsin and trypsin = assay: Pepsin-trypsin simulated GI digestion stability; assay type: in vitro ADME; details: 400 μg/mL peptide; simulated gastric juice (pepsin, pH 3.0) 37 °C 2 h, then simulated intestinal fluid (trypsin, bile salt) 2 h; read-out: retained hepatoprotective activity (ALT, AST, MDA) in HHL-5 model
Method: The stability of LPLPFP in response to pepsin and trypsin in the simulation of GI digestion in vitro was examined based on Xie et al.. A 1 L ultrapure water solution containing 2 g of NaCl and 3.2 g of pepsin (3000 U/mg protein) with a pH of 3.0 (adjusted with a 6 mol/L HCl solution), was configured as simulated gastric juice. In addition, 0.68 g of potassium dihydrogen phosphate, 7.7 mL of 0.2 mol/L NaOH solution, 1 g of trypsin (285 U/mg protein), and 6 g of bile salt were added and dissolved in 70 mL of ultrapure water with a pH of 7.6 (adjusted with a 0.2 mol/L NaOH solution) and the volume was filled with ultrapure water up to 1 L (as simulated intestinal fluid). The 400 μg/mL of peptide solution at pH 3.0 (adjusted with a 1 mol/L HCl solution) and 5 mL of simulated gastric juice was mixed and shaken at 37 °C for 2 h to simulate gastric digestion, then the mixture was terminated by being heated at 100 °C for 10 min, the pH was adjusted to 7.2 with a 0.2 mol/L NaOH solution, and 5 mL of simulated intestinal juice was added to the solution, and the same conditions were used for simulating intestinal digestion. Finally, the digestive liquid was transferred to the ultrafiltration centrifuge tube (1 kDa) and centrifuged at 4 °C, 8500× g for 20 min; the filtered solutions were desalted by a polar enhanced polymer (PEP) column (500 mg/6 mL) and dried in a vacuum freeze-dryer.

Molecule: CCO [alcohol, anhydrous ethanol]
- level of GSH-Px after administration of alcohol (HHL-5 hepatocytes [1]): 49.26 ± 4.82 U/mg prot
- level of SOD after administration of alcohol (HHL-5 hepatocytes [2]): 31.28 ± 4.53 U/mg prot
- level of ROS after stimulation with alcohol (HHL-5 hepatocytes [3]): 95.23 ± 6.54 U/mg prot
- viability of HHL-5 hepatocytes (HHL-5 hepatocytes [4]; 500 mmol/L alcohol, 48 h, CCK-8, mean ± SD, at least triplicates): approximately 49.28 ± 5.12%
- median lethal dose of alcohol for HHL-5 hepatocytes (LD50) (HHL-5 hepatocytes [4]; 48 h incubation, CCK-8): 500 mmol/L
- level of CAT after administration of alcohol (HHL-5 hepatocytes [5]): 24.87 ± 3.28 U/mg prot
- level of AST in the EtOH group (HHL-5 hepatocytes [6]): 376.57 ± 32.83 U/L
- level of H2O2 after stimulation with alcohol (HHL-5 hepatocytes [7]): 43860 ± 3570 µM
- level of MDA in the EtOH group (HHL-5 hepatocytes [8]): 2.436e+07 ± 2.85e+06 µM

Molecule: Gly-Lys-Phe-Asn-Val
- Fe^2+ chelating ability (source: scavenging rate of Fe^2+) ([9]; 1 mg/mL ref 16): 63.20%

Molecule: Cc1cc(C(C)(C)C)c(O)c(C(C)(C)C)c1 [BHT]
- Fe^2+ Chelating Ability (%) (Fe^2+ chelating ability): 14.39 ± 2.46 ^b %
- ∙OH Radical Scavenging Activity (%) [10]: 79.38 ± 2.03 ^b %
- DPPH Radical Scavenging Activity (%) [11]: 90.56 ± 1.73 ^b %

Molecule: CC(C)C[C@H](NC(=O)[C@@H]1CCCN1C(=O)[C@@H](N)CC(C)C)C(=O)N1CCC[C@H]1C(=O)N[C@@H](Cc1ccccc1)C(=O)N1CCC[C@H]1C(=O)O [LPLPFP, Leu-Pro-Leu-Pro-Phe-Pro] (H-LPLPFP-OH)
- resistance to pepsin-trypsin simulated GI digestion (pepsin and trypsin): strong resistance

Molecule: NPPKFD
- Fe^2+ chelating ability (source: scavenging rate of Fe^2+) ([9]; 1 mg/mL ref 3): 66.92%
